Measurements published in ChEMBL document CHEMBL3526075, “Metabolism of the active metabolite of quetiapine, N-desalkylquetiapine in vitro” (Drug Metab Dispos, 2012).
Values belong to the molecule of their own block, whether it stands above or below them.

Key:
Assay type in all cases: ADME
Cytochrome P450 3A4 [1] = molecular target: T1, Cytochrome P450 3A4 (Homo sapiens, UniProt P08684); assay: Activity of human CYP3A4 expressed in supersomes co-expressing cytochrome P450 reductase assessed as N-desalkylquetiapine sulfoxide formation after 60 mins by LC-MS analysis; details: recombinant enzyme, 1 h
Liver microsome [2] = assay: Drug metabolism in human liver microsomes assessed as 7-hydroxy-N-desalkylquetiapine formation at 3 uM after 30 mins by mass spectroscopy in presence of CYP2C9 inhibitor sulfaphenazole; details: 0.5 h
Liver microsome [3] = assay: Drug metabolism in human liver microsomes assessed as 7-hydroxy-N-desalkylquetiapine formation at 3 uM after 30 mins by mass spectroscopy in presence of CYP2C19 inhibitor benzylnirvanol; details: 0.5 h
[4] = Activity of cytochrome P450 in human liver microsomes assessed as N-desalkylquetiapine sulfoxide formation measured as high-affinity/low-capacity binding constant by LC-MS analysis
Liver microsome [5] = assay: Drug metabolism in human liver microsomes assessed as N-desalkylquetiapine sulfoxide formation at 3 uM after 30 mins by mass spectroscopy in presence of CYP3A4 inhibitor ketoconazole; details: 0.5 h
Cytochrome P450 2D6 [6] = molecular target: T2, Cytochrome P450 2D6 (Homo sapiens, UniProt P10635); assay: Activity of human CYP2D6 expressed in supersomes co-expressing cytochrome P450 reductase assessed as metabolite M3 formation after 60 mins by LC-MS analysis; details: recombinant enzyme, 1 h
Liver microsome [7] = assay: Drug metabolism in human liver microsomes assessed as N-desalkylquetiapine sulfoxide formation at 3 uM after 30 mins by mass spectroscopy in presence of CYP2C19 inhibitor benzylnirvanol; details: 0.5 h
Cytochrome P450 2D6 [8] = molecular target: T2, Cytochrome P450 2D6; assay: Activity of human CYP2D6 expressed in supersomes co-expressing cytochrome P450 reductase assessed as intrinsic clearance per pmol protein by LC-MS analysis; details: recombinant enzyme
Liver microsome [9] = assay: Drug metabolism in human liver microsomes assessed as 7-hydroxy-N-desalkylquetiapine formation at 3 uM after 30 mins by mass spectroscopy in presence of CYP2D6 inhibitor quinidine; details: 0.5 h
CYP2D6 = CYP2D6 (Homo sapiens, UniProt P10635); assay: Activity of human CYP2D6 expressed in supersomes co-expressing cytochrome P450 reductase assessed as substrate depletion after 60 mins by LC-MS analysis; details: read-out: Drug metabolism
Liver microsome [10] = assay: Drug metabolism in human liver microsomes assessed as 7-hydroxy-N-desalkylquetiapine formation at 3 uM after 30 mins by mass spectroscopy; details: 0.5 h
Cytochrome P450 2D6 [11] = molecular target: T2, Cytochrome P450 2D6; assay: Activity of human CYP2D6 expressed in supersomes co-expressing cytochrome P450 reductase assessed as N-desalkylquetiapine sulfoxide formation after 60 mins by LC-MS analysis; details: recombinant enzyme, 1 h
Liver microsome [12] = assay: Drug metabolism in human liver microsomes assessed as N-desalkylquetiapine sulfoxide formation at 3 uM after 30 mins by mass spectroscopy in presence of CYP2C9 inhibitor sulfaphenazole; details: 0.5 h
CYP3A4 = CYP3A4 (Homo sapiens, UniProt P08684); assay: Activity of human CYP3A4 expressed in xenosomes assessed as substrate depletion after 60 mins by LC-MS analysis; details: recombinant CYP3A4 expressed in xenosomes, read-out: Drug metabolism
Cytochrome P450 2D6 [13] = molecular target: T2, Cytochrome P450 2D6; assay: Activity of human CYP2D6 expressed in supersomes co-expressing cytochrome P450 reductase assessed as 7-hydroxy-N-desalkylquetiapine formation after 60 mins by LC-MS analysis; details: recombinant enzyme, 1 h
Liver microsome [14] = assay: Drug metabolism in human liver microsomes assessed as N-desalkylquetiapine sulfoxide formation at 3 uM after 30 mins by mass spectroscopy; details: 0.5 h
Liver microsome [15] = assay: Drug metabolism in human liver microsomes assessed as 7-hydroxy-N-desalkylquetiapine formation at 3 uM after 30 mins by mass spectroscopy in presence of CYP1A2 inhibitor fluvoxamine; details: 0.5 h
cytochrome P450 = assay: Activity of cytochrome P450 in human liver microsomes by LC-MS analysis
Cytochrome P450 3A4 [16] = molecular target: T1, Cytochrome P450 3A4; assay: Activity of human CYP3A4 expressed in supersomes co-expressing cytochrome P450 reductase assessed as metabolite M3 formation after 60 mins by LC-MS analysis; details: recombinant enzyme, 1 h
[17] = Activity of cytochrome P450 in human liver microsomes assessed as 7-hydroxy-N-desalkylquetiapine formation measured as substrate inhibition constant by LC-MS analysis
Cytochrome P450 3A4 [18] = molecular target: T1, Cytochrome P450 3A4; assay: Activity of human CYP3A4 expressed in xenosomes assessed as intrinsic clearance per pmol protein by LC-MS analysis
[19] = Activity of cytochrome P450 in human liver microsomes assessed as N-desalkylquetiapine sulfoxide formation measured as low-affinity/high-capacity binding constant by LC-MS analysis
[20] = Activity of cytochrome P450 in human liver microsomes assessed as metabolite M3 formation by LC-MS analysis
Liver microsome [21] = assay: Drug metabolism in human liver microsomes treated with N-desalkylquetiapine at 3 uM after 30 mins by mass spectroscopy in presence of CYP2C19 inhibitor benzylnirvanol; details: 0.5 h
Liver microsome [22] = assay: Drug metabolism in human liver microsomes treated with N-desalkylquetiapine at 3 uM after 30 mins by mass spectroscopy in presence of CYP2D6 inhibitor quinidine; details: 0.5 h
Liver microsome [23] = assay: Drug metabolism in human liver microsomes treated with N-desalkylquetiapine at 3 uM after 30 mins by mass spectroscopy in presence of CYP1A2 inhibitor fluvoxamine; details: 0.5 h
Liver microsome [24] = assay: Drug metabolism in human liver microsomes treated with N-desalkylquetiapine at 3 uM after 30 mins by mass spectroscopy in presence of CYP3A4 inhibitor ketoconazole; details: 0.5 h
Liver microsome [25] = assay: Retention time in human liver microsomes after 30 to 60 mins by mass spectroscopy
Liver microsome [26] = assay: Drug metabolism in human liver microsomes treated with N-desalkylquetiapine at 3 uM after 30 mins by mass spectroscopy in presence of CYP2C9 inhibitor sulfaphenazole; details: 0.5 h
Liver microsome [27] = assay: Drug metabolism in human liver microsomes treated with N-desalkylquetiapine at 3 uM after 30 mins by mass spectroscopy; details: 0.5 h

T1 sequence (P08684 whole entry): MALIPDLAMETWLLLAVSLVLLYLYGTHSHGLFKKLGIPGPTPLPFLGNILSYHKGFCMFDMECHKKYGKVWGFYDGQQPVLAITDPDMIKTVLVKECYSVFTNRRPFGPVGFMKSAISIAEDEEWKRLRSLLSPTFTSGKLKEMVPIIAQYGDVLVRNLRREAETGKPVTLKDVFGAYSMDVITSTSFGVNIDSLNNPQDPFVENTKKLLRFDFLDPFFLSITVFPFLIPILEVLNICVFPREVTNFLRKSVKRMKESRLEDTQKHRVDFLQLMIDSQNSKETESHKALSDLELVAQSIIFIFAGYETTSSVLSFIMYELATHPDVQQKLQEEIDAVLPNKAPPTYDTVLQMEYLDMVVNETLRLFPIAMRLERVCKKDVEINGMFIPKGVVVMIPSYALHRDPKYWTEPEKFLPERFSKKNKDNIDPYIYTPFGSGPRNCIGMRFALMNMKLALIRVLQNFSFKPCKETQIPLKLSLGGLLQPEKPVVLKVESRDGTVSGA
T2 sequence (P10635 whole entry): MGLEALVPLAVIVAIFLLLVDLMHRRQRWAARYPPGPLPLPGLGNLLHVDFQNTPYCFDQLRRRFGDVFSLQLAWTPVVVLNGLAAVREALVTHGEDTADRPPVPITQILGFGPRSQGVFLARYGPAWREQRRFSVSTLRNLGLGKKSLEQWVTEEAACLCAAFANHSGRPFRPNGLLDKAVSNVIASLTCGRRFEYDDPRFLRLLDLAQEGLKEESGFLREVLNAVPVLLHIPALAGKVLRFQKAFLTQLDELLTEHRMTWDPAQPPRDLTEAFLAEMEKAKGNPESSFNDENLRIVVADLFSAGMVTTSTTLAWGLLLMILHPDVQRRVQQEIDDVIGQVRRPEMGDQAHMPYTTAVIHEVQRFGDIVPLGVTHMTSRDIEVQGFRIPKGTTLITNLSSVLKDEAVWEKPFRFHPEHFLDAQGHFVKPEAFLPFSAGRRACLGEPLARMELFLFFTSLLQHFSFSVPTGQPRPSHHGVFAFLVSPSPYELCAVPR
Chain of CYP3A4 (P08684 whole entry): as the sequence (P08684 whole entry) above
Chain of CYP2D6 (P10635 whole entry): as the sequence (P10635 whole entry) above

Drug metabolism (Cytochrome P450 3A4 [1]): metabolite_detected | Drug metabolism (Liver microsome [2]): metabolite_detected | Drug metabolism (Liver microsome [3]): metabolite_detected | Km [4]: 15 µM | Drug metabolism (Liver microsome [5]): metabolite_not_detected | Drug metabolism (Cytochrome P450 2D6 [6]): metabolite_detected | Drug metabolism (Liver microsome [7]): metabolite_detected | CL (Cytochrome P450 2D6 [8]): 3 µL/min | Drug metabolism (Liver microsome [9]): metabolite_not_detected | metabolised at 1 h (CYP2D6): 47% | Drug metabolism (Liver microsome [10]): metabolite_detected | Drug metabolism (Cytochrome P450 2D6 [11]): metabolite_detected | Drug metabolism (Liver microsome [12]): metabolite_detected | metabolised at 1 h (CYP3A4): 6% | Drug metabolism (Cytochrome P450 2D6 [13]): metabolite_detected | Drug metabolism (Liver microsome [14]): metabolite_detected | Drug metabolism (Liver microsome [15]): metabolite_detected | Km (cytochrome P450): 110 µM | Drug metabolism (Cytochrome P450 3A4 [16]): metabolite_detected | Kis [17]: 824 µM | CL (Cytochrome P450 3A4 [18]): 0.25 µL/min | Km [19]: 459 µM | Km [20]: 199 µM
Compound: c1ccc2c(c1)N=C(N1CCNCC1)c1ccccc1S2

Drug metabolism (Liver microsome [21]): metabolite_detected | Drug metabolism (Liver microsome [22]): metabolite_not_detected | Drug metabolism (Liver microsome [23]): metabolite_detected | Drug metabolism (Liver microsome [24]): metabolite_not_detected | Retention_time (Liver microsome [25]): 4.31 min | Drug metabolism (Liver microsome [26]): metabolite_detected | Drug metabolism (Liver microsome [27]): metabolite_detected
Compound: Oc1ccc2c(c1)Sc1ccccc1C(N1CCNCC1)=N2

Drug metabolism (Liver microsome [21]): metabolite_detected | Drug metabolism (Liver microsome [22]): metabolite_not_detected | Drug metabolism (Liver microsome [23]): metabolite_detected | Drug metabolism (Liver microsome [24]): metabolite_not_detected | Retention_time (Liver microsome [25]): 3.98 min | Drug metabolism (Liver microsome [26]): metabolite_detected | Drug metabolism (Liver microsome [27]): metabolite_detected
Compound: [O-][S+]1c2ccccc2N=C(N2CCNCC2)c2ccccc21 (configuration not stated)
